Experimental data as given in patent publication US20220251124A1, “3,5-BIS(PHENYL)-1H-HETEROARYL DERIVATIVES AS MEDICAMENTS” (INSTITUTE OF BIOTECHNOLOGY CAS, V.V.I., priority 2019, published 2022).
Like-named read-outs stand apart in the source and are kept apart here.

Key:
Format in all cases: cell-based
non-malignant HFP1 cells = assay: annexin V/PI staining, cell death induction, 48 hrs; conditions: 500 μM, 48 hrs, HFP1
Experimental: (§1) This effect seems to be based mainly on the cytostatic effect of compound 1. To define the ability to kill cells, cell death-inducing potency (cytotoxic efficacy) of DFX and compound 1 have been tested via annexin V/PI staining commonly used as a measure of apoptotic/necrotic cell death. Briefly, cells were seeded in 12-well plate at 100,000 per well, incubated with the selected compounds for 48 hours, then floating cells were spun, adherent cells trypsinized and spun as well followed by the staining with AnnexinV-FITC and PI probes. Cells were then washed with PBS and measured via Fluorescence Activated Sorter.

non malignant cells MRC5 = assay: as above; conditions: 500 μM
Experimental: as §1

BxPC3 [1] = assay: as above; conditions: 500 μM
Experimental: as §1

OVCAR = assay: as above; conditions: 500 μM
Experimental: as §1

[2] = test system: tamoxifen resistant MCF7 (Tam5R); assay: crystal violet assay, tamoxifen resistant cells; conditions: MCF7 Tam5R grown in the presence of 5 μM tamoxifen
Experimental: (§2) Compound 1 and a comparative compound deferasirox (DFX) were tested in their efficacy to kill/suppress proliferation of malignant breast cancer MCF7 cells representing estrogen-dependent type of breast cancer. Briefly, 10.000 cells per well were seeded in a 96-well plate on one day and the next day the tested compounds were added and incubated with the cells for 48 hrs. The cells were then fixed with 4% paraformaldehyde, stained with 0.05% crystal violet, washed with PBS, and solubilized in 1% SDS. The absorbance of the plate at 595 nm was then measured, quantifying the number of viable cells.
To test whether compound 1 is active against resistant cancer cells, we used tamoxifen-resistant MCF7, T47D. The IC50 values were again measured with the crystal violet assay performed as in example 12. We have documented that there is a significant difference in the ability of compound 1 to induce cytostatic and cytotoxic effects between the parental cells sensitive to tamoxifen and the resistant ones that grow even in the presence of tamoxifen (Table 11), yet the IC50 values are still in the nM range, making this compound very efficient.

OVCAR3 = assay: crystal violet assay, cellular viability, 48 hrs; conditions: Homo sapiens, OVCAR-3
Experimental: as §2
(§3) Compounds 1, 2 and the comparative compound deferasirox were tested in their efficacy to suppress proliferation/kill several malignant cell lines of breast, pancreatic and ovarian origin (MCF7, MDA-MB-231, BxPC3 and OVCAR3). The procedure is identical to that in example 12.

T47D = assay: crystal violet assay, cellular viability, 48 hrs; conditions: T47D (parental/control)
Experimental: [The source words this procedure for another cell line and reports this cell line under the same test.] as §2, §3

[3] = test system: non-malignant fibroblasts (HFP1); assay: crystal violet assay, cellular viability, 48 hrs; conditions: Fibroblast
Experimental: [The source words this procedure for another cell line and reports this cell line under the same test.] as §2, §3

BxPC3 [4] = assay: crystal violet assay, cellular viability, 48 hrs; conditions: Homo sapiens, BXPC-3
Experimental: as §2, §3

MCF7 cells = assay: crystal violet assay, cellular viability (cytostatic and cytotoxic effect), 48 hrs; conditions: for IC50: MCF7 (parental/control), crystal violet, read-out: IC50
Experimental: as §2

MCF7 = assay: annexin V/PI staining, cell death induction, 48 hrs; conditions: 500 μM
Experimental: as §1
Since compound 1 is an iron chelator, we have evaluated the effect of pre-loading compound 1 with iron at a 2:1 ratio and then applying it to the cells, followed by measurement of cell death using the Annexin V/PI staining as in example 4.

leukemia cells = assay: alamarBlue viability, leukemia cells overall; conditions: several leukemia cells, 48 hrs; read-out: IC50 (suppression of proliferation to 50%)
Experimental: (§4) Compound 1 and a comparative compound deferasirox (DFX) were tested in their efficacy to kill/suppress proliferation of several leukemia cells. Briefly, 10.000 cells per well were seeded in a 96-well plate on one day and the next day the tested compounds were added and incubated with the cells for 48 hrs. Cellular viability was determined as the ability to reduce the probe alamarBlue™ Cell Viability Reagent.

UPF4D leukemia cell line = assay: alamarBlue Cell Viability Reagent, 48 hrs; conditions: 48 hrs, UPF4D
Experimental: as §4

[5] = test system: UPF16A leukemia cell line; assay: alamarBlue Cell Viability Reagent, 48 hrs; conditions: 48 hrs, UPF16A
Experimental: as §4

UPF9T leukemia cell line = assay: alamarBlue Cell Viability Reagent, 48 hrs; conditions: 48 hrs, UPF9T
Experimental: as §4

UPF1H leukemia cell line = assay: alamarBlue Cell Viability Reagent, 48 hrs; conditions: 48 hrs
Experimental: as §4

MDA-MB-231 cells = assay: crystal violet assay, cellular viability, 48 hrs; conditions: for IC50: MDA-MB-231, crystal violet, read-out: IC50
Experimental: as §2
Compound 1 and the comparative compound deferasirox were tested in their efficacy to kill/suppress proliferation of malignant MDA-MB-231 cancer cells representing hard to treat triple negative breast cancer. The procedure is identical to that in example 12.

[6] = 1 μM, read-out: viable cells compared to non-treated controls
[7] = 3 μM, read-out: viable cells compared to non-treated controls
[8] = 30 μM, read-out: viable cells compared to non-treated controls
[9] = 100 μM, read-out: viable cells compared to non-treated controls
[10] = 500 μM, read-out: viable cells compared to non-treated controls

## O=C(O)c1ccc(-n2nc(-c3ccccc3O)nc2-c2ccccc2O)cc1 [DFX, deferasirox, reference compound]
non-malignant HFP1 cells
  dead cells (AnnexinV/PI): 35.6 (1.5) %
Non malignant cells MRC5
  dead cells (AnnexinV/PI): 43.7 (7.7) %
BxPC3 [1]
  dead cells (AnnexinV/PI): 45.8 (21.3) %
OVCAR
  dead cells (AnnexinV/PI): 59.7 (4.6) %
[2]
  IC50: 15 µM
OVCAR3
  IC50: 19.2 µM
T47D; Homo sapiens, T47D, 48 h
  IC50: 60.8 µM
T47D
  IC50: 60.8 µM
[3]
  IC50: 37.9 µM
BxPC3 [4]
  IC50: 22.9 µM
MCF7 cells; Homo sapiens, 1 μM, MCF7, read-out: viable cells compared to non-treated controls
  viability at 1 µM: 104%
MCF7 cells; Homo sapiens, 3 μM, MCF7, read-out: viable cells compared to non-treated controls
  viability at 3 µM: 76%
MCF7 cells; Homo sapiens, 10 μM, MCF7, read-out: viable cells compared to non-treated controls
  viability at 10 µM: 56.5%
MCF7 cells; Homo sapiens, 30 μM, MCF7, read-out: viable cells compared to non-treated controls
  viability at 30 µM: 23.9%
MCF7 cells; Homo sapiens, MCF7, 48 h
  IC50: 10 µM
MCF7 cells
  IC50: 10.9 µM
MCF7
  dead cells (AnnexinV/PI): 85.2 (3.3) %
Leukemia cells
  IC50: 5 to 80 µM
UPF4D leukemia cell line; [6]
  viability at 1 µM: 92.7%
UPF4D leukemia cell line; [7]
  viability at 3 µM: 61.9%
UPF4D leukemia cell line; [8]
  viability at 30 µM: 2.9%
UPF4D leukemia cell line; [9]
  viability at 100 µM: 4%
UPF4D leukemia cell line; [10]
  viability at 500 µM: 11.1%
UPF4D leukemia cell line; alamarBlue, read-out: IC50
  IC50: 4.92 µM
[5]; [6]
  viability at 1 µM: 82.5%
[5]; [7]
  viability at 3 µM: 61.3%
[5]; [8]
  viability at 30 µM: 34.7%
[5]; [9]
  viability at 100 µM: 10.6%
[5]; [10]
  viability at 500 µM: 9.7%
[5]; alamarBlue, read-out: IC50
  IC50: 7.6 µM
UPF9T leukemia cell line; [6]
  viability at 1 µM: 90.8%
UPF9T leukemia cell line; [7]
  viability at 3 µM: 81.3%
UPF9T leukemia cell line; [8]
  viability at 30 µM: 49.2%
UPF9T leukemia cell line; [9]
  viability at 100 µM: 53.3%
UPF9T leukemia cell line; [10]
  viability at 500 µM: 39%
UPF9T leukemia cell line; alamarBlue, read-out: IC50
  IC50: 80.2 µM
UPF1H leukemia cell line; [6]
  viability at 1 µM: 94.3%
UPF1H leukemia cell line; [7]
  viability at 3 µM: 88%
UPF1H leukemia cell line; [8]
  viability at 30 µM: 7.3%
UPF1H leukemia cell line; [9]
  viability at 100 µM: 13.3%
UPF1H leukemia cell line; [10]
  viability at 500 µM: 22.4%
UPF1H leukemia cell line; alamarBlue, read-out: IC50
  IC50: 9.6 µM
MDA-MB-231 cells; Homo sapiens, 1 μM, MDA-MB-231, read-out: viable cells compared to non-treated controls
  viability at 1 µM: 109%
MDA-MB-231 cells; Homo sapiens, 3 μM, MDA-MB-231, read-out: viable cells compared to non-treated controls
  viability at 3 µM: 90.8%
MDA-MB-231 cells; Homo sapiens, 10 μM, MDA-MB-231, read-out: viable cells compared to non-treated controls
  viability at 10 µM: 70.4%
MDA-MB-231 cells; Homo sapiens, 30 μM, MDA-MB-231, read-out: viable cells compared to non-treated controls
  viability at 30 µM: 62.1%
MDA-MB-231 cells; Homo sapiens, 100 μM, MDA-MB-231, read-out: viable cells compared to non-treated controls
  viability at 100 µM: 55.7%
MDA-MB-231 cells; Homo sapiens, 300 μM, MDA-MB-231, read-out: viable cells compared to non-treated controls
  viability at 300 µM: 14.1%
MDA-MB-231 cells; Homo sapiens, MDA-MB-231, 48 h
  IC50: 70 µM
MDA-MB-231 cells
  IC50: 70 µM
